According to patent publication US20250298027A1, “METHOD OF EVALUATING SMALL MOLECULE DISTRIBUTION USING TELLUROPHENE ANALOGUES” (THE GOVERNING COUNCIL OF THE UNIVERSITY OF TORONTO, priority 2022, published 2025):

Columns and labels:
PANC-1 cells = assay: alamarBlue viability assay in PANC-1 cells; assay type: cell-based, Human; settings: maximum dose of 25 μM, 72 hours exposure
Method: Similarly, PANC1 cells were characterized for later in vivo experiments. Using an alamarBlue viability assay and a proliferative assay, PANC-1 cells were incubated with 1 or teniposide.
AlamarBlue assay: PANC-1 cells were seeded into black, clear-bottom 96-well assay plates (Corning; CLS3603) and incubated for 24 hours. The medium was replaced with […] of teniposide or compound 1. After 72 hours exposure to drug, alamarBlue (Thermo Fisher Scientific; DAL1100) cell viability reagent was added and incubated for 4 hours at 37° C. Fluorescence intensity was measured using an excitation wavelength of 560 nm and an emission of 590 nm. Cell viability was calculated by normalizing to an untreated control.

pH2AX^Ser139 = assay: pH2AX Western blotting in PANC-1 cells; assay type: cell-based, Human; settings: 1 μM, 24 and 48 hours
Method: Next, the ability of 1 to induce DSBs—the dominant type of DNA damage resulting from Top2 inhibition was investigated. In response to DSBs, a cascade of DNA repair mechanisms are triggered, including-phosphorylation of the histone variant H2AX at Ser139. Thus, the level of pH2AX^Ser139 serves as a reliable marker for Top2-linked DSBs. Western blotting was used to measure pH2AX^Ser139 in PANC-1 cells treated with 1 μM of either 1 or teniposide for 24 and 48 hours.
pH2AX Blotting: PANC-1 cells (0.5×10^6) cells were seeded in 60 mm plastic petri dishes (Corning Inc. NY) and incubated for 18 h. The spent medium is removed and replaced with fresh medium containing drug ([…]) and incubated for either 24 or 48h. Control cells were treated with DMSO only. The cells were then lysed with RIPA buffer (25 mM Tris·HCl PH 7.6, 150 mM NaCl, 1% NP-40, 1% sodium deoxycholate, 0.1% SDS) (ThermoFisher Scientific) containing Halt Protease Inhibitor Cocktail (Cat. No. 78410) and Halt Phosphatase Inhibitor Cocktail (Cat. No. 78420) as per manufacturer's protocol. […] Antibodies (Abcam, Cambridge, MA) targeting the following proteins were used H2AX (S139) (ab11174, polyclonal) and β-tubulin (ab6046, polyclonal).

## COc1cc([C@@H]2c3cc4c(cc3[C@@H](OC3OC5COC(c6ccc[te]6)OC5C(O)C3O)[C@H]3COC(=O)C23)OCO4)cc(OC)c1O (some centres unmarked) [Compound 1, Tellurium-labelled teniposide]
PANC-1 cells
  loss of cell viability in PANC-1 cells: almost complete loss of cell viability
pH2AX^Ser139
  levels of pH2AX^Ser139 relative to DMSO-treated control: Increased levels
